# Where two headings read alike, the source gives them in different places.
# Assays:
# U-2OS = experiment: Cell viability analysis, osteosarcoma U-2OS; assay type: cell-based, human; conditions: Homo sapiens, 72 h; U2OS; repeated experiment; read-out: The results of antibiotic drug inhibiting cancer cell lines (cell viability analysis), U2OS
# [1] = system: 786-O (Renal adenocarcinoma); experiment: Cell viability analysis, renal cancer 786-O; assay type: cell-based, human; conditions: Homo sapiens, 786-0, 72 h; 786-O; repeated experiment; read-out: The results of antibiotic drug inhibiting cancer cell lines (cell viability analysis), 786-O
# [2] = system: MDA-MB-231 (Mammary Gland, Adenocarcinoma); experiment: Cell viability analysis, breast cancer MDA-MB-231; assay type: cell-based, human; conditions: Homo sapiens, MDA-MB-231, 72 h; MDA-MB231; repeated experiment; read-out: The results of antibiotic drug inhibiting cancer cell lines (cell viability analysis), MDA-MB231
# [3] = system: A375 (Amelanotic Melanoma); experiment: Cell viability analysis, skin cancer A375; assay type: cell-based, human; conditions: Homo sapiens, A-375, 72 h
# BxPC-3 = experiment: Cell viability analysis, pancreatic cancer BxPC-3; assay type: cell-based, human; conditions: Homo sapiens, 72 h; BxPC-3; repeated experiment; read-out: The results of antibiotic drug inhibiting cancer cell lines (cell viability analysis), BxPC-3
# [4] = system: AGS (Gastric Adenocarcinoma); experiment: Cell viability analysis, gastric cancer AGS; assay type: cell-based, human; conditions: Homo sapiens, 72 h
# [5] = system: MCF7 (Mammary Gland, Adenocarcinoma); experiment: Cell viability analysis, breast cancer MCF7; assay type: cell-based, human; conditions: Homo sapiens, MCF7, 72 h
# [6] = system: TSGH-8301 (Urinary Bladder Carcinoma); experiment: Cell viability analysis, bladder cancer TSGH-8301; assay type: cell-based, human; conditions: Homo sapiens, 72 h
# [7] = system: LoVo (Colorectal Adenocarcinoma); experiment: Cell viability analysis, colon cancer LoVo; assay type: cell-based, human; conditions: Homo sapiens, LoVo, 72 h
# [8] = system: HL-60 (Acute Promyelocytic Leukemia); experiment: Cell viability analysis, leukemia HL-60; assay type: cell-based, human; conditions: Homo sapiens, HL-60, 72 h, drug 10 μM, 72 hours, WST-1, OD450 nm; read-out: cell viability (survival rate), HL-60
# [9] = system: C-33A (Cervical carcinoma); experiment: Cell viability analysis, cervical cancer C-33A; assay type: cell-based, human; conditions: Homo sapiens, 72 h; C-33A; repeated experiment; read-out: The results of antibiotic drug inhibiting cancer cell lines (cell viability analysis), C-33A
# [10] = system: Hep3B (hepatocellular carcinoma); experiment: Cell viability analysis, hepatic cancer Hep3B; assay type: cell-based, human; conditions: Homo sapiens, 72 h; Hep3B; repeated experiment; read-out: The results of antibiotic drug inhibiting cancer cell lines (cell viability analysis), Hep3B
# [11] = system: SAS (Tongue squamous cell carcinoma); experiment: Cell viability analysis, tongue cancer SAS; assay type: cell-based, human; conditions: Homo sapiens, 72 h; SAS; repeated experiment; read-out: The results of antibiotic drug inhibiting cancer cell lines (cell viability analysis), SAS
# TOV-21G = experiment: Cell viability analysis, ovarian cancer TOV-21G; assay type: cell-based, human; conditions: Homo sapiens, TOV21G, 72 h; TOV-21G; repeated experiment; read-out: The results of antibiotic drug inhibiting cancer cell lines (cell viability analysis), TOV-21G
# [12] = system: MKN-45 (Gastric Adenocarcinoma); experiment: Cell viability analysis, gastric cancer MKN-45; assay type: cell-based, human; conditions: Homo sapiens, MKN-45, 72 h
# [13] = system: BCC (basal cell carcinoma); experiment: Cell viability analysis, skin cancer BCC; assay type: cell-based, human; conditions: Homo sapiens, 72 h; BCC; repeated experiment; read-out: The results of antibiotic drug inhibiting cancer cell lines (cell viability analysis), BCC
# [14] = system: A549 (Lung Adenocarcinoma); experiment: Cell viability analysis, lung cancer A549; assay type: cell-based, human; conditions: Homo sapiens, A549, 72 h
# AsPC-1 = experiment: Cell viability analysis, pancreatic cancer AsPC-1; assay type: cell-based, human; conditions: Homo sapiens, ASPC1, 72 h; AsPC-1; repeated experiment; read-out: The results of antibiotic drug inhibiting cancer cell lines (cell viability analysis), AsPC-1
# [15] = system: HI650 (Lung Adenocarcinoma); experiment: Cell viability analysis, lung cancer HI650; assay type: cell-based, human; conditions: Homo sapiens, NCI-H1650, 72 h
# [16] = system: HCT116 (p53+) (Colorectal Carcinoma)
# [17] = system: PC3 (p53−) (Prostate Adenocarcinoma); experiment: Cell viability analysis, prostate cancer PC3; assay type: cell-based, human; conditions: Homo sapiens, 72 h
# [18] = system: HeLa (Cervix Adenocarcinoma); experiment: Cell viability analysis, cervical cancer HeLa; assay type: cell-based, human; conditions: Homo sapiens, HeLa, 72 h, HeLa
# T24 = experiment: Cell viability analysis, bladder cancer T24; assay type: cell-based, human; conditions: Homo sapiens, T-24, 72 h; T24; repeated experiment; read-out: The results of antibiotic drug inhibiting cancer cell lines (cell viability analysis), T24
# NIH: OVCAR-3 = experiment: Cell viability analysis, ovarian cancer NIH: OVCAR-3; assay type: cell-based, human; conditions: Homo sapiens, 72 h; NIH-OVCAR-3; repeated experiment; read-out: The results of antibiotic drug inhibiting cancer cell lines (cell viability analysis), NIH-OVCAR-3
# [19] = A375, repeated experiment, read-out: The results of antibiotic drug inhibiting cancer cell lines (cell viability analysis), A375
# [20] = drug 10 μM, 72 hours, WST-1, OD450 nm, read-out: cell viability (survival rate), A375
# [21] = AGS, repeated experiment, read-out: The results of antibiotic drug inhibiting cancer cell lines (cell viability analysis), AGS
# [22] = drug 10 μM, 72 hours, WST-1, OD450 nm, read-out: cell viability (survival rate), AGS
# [23] = MCF-7, repeated experiment, read-out: The results of antibiotic drug inhibiting cancer cell lines (cell viability analysis), MCF-7
# [24] = drug 10 μM, 72 hours, WST-1, OD450 nm, read-out: cell viability (survival rate), MCF7
# [25] = TSGH-8301, repeated experiment, read-out: The results of antibiotic drug inhibiting cancer cell lines (cell viability analysis), TSGH-8301
# [26] = drug 10 μM, 72 hours, WST-1, OD450 nm, read-out: cell viability (survival rate), TSGH
# [27] = read-out: The results of antibiotic drug inhibiting cancer cell lines (cell viability analysis), LoVo, repeated experiment
# [28] = read-out: cell viability (survival rate), LoVo, drug 10 μM, 72 hours, WST-1, OD450 nm
# [29] = MKN-45, repeated experiment, read-out: The results of antibiotic drug inhibiting cancer cell lines (cell viability analysis), MKN-45
# [30] = drug 10 μM, 72 hours, WST-1, OD450 nm, read-out: cell viability (survival rate), MKN-45
# [31] = A549, repeated experiment, read-out: The results of antibiotic drug inhibiting cancer cell lines (cell viability analysis), A549
# [32] = drug 10 μM, 72 hours, WST-1, OD450 nm, read-out: cell viability (survival rate), A549
# [33] = H1650, repeated experiment, read-out: The results of antibiotic drug inhibiting cancer cell lines (cell viability analysis), H1650
# [34] = drug 10 μM, 72 hours, WST-1, OD450 nm, read-out: cell viability (survival rate), H1650
# [35] = PC-3, repeated experiment, read-out: The results of antibiotic drug inhibiting cancer cell lines (cell viability analysis), PC-3
# [36] = drug 10 μM, 72 hours, WST-1, OD450 nm, read-out: cell viability (survival rate), PC3
# [37] = repeated experiment, read-out: The results of antibiotic drug inhibiting cancer cell lines (cell viability analysis), HeLa
# [38] = drug 10 μM, 72 hours, WST-1, OD450 nm, read-out: cell viability (survival rate), HeLa
SMILES,viability at 10 µM (U-2OS),viability at 10 µM [1],viability at 10 µM [2],"viability at 10 µM [3, 19]","viability at 10 µM [3, 20]",viability at 10 µM (BxPC-3),"viability at 10 µM [4, 21]","viability at 10 µM [4, 22]","viability at 10 µM [5, 23]","viability at 10 µM [5, 24]","viability at 10 µM [6, 25]","viability at 10 µM [6, 26]","viability at 10 µM [7, 27]","viability at 10 µM [7, 28]",viability at 10 µM [8],viability at 10 µM [9],viability at 10 µM [10],viability at 10 µM [11],viability at 10 µM (TOV-21G),"viability at 10 µM [12, 29]",other results
Cc1ccc2c(Cl)cc(Cl)c(O)c2n1 [Chlorquinaldol],32.4%,41.8%,65%,35.5%,43%,53.9%,53.9%,35.7%,30.2%,47.8%,87%,70.5%,45.8%,62.8%,64.8%,47.5%,105%,20.6%,40.1%,92.4%,"viability at 10 µM [12, 30]: 75.4%; viability at 10 µM [13]: 43%; viability at 10 µM [14, 31]: 37.8%; viability at 10 µM [14, 32]: 54.5%; viability at 10 µM (AsPC-1): 62.8%; viability at 10 µM [15, 33]: 75.2%; viability at 10 µM [15, 34]: 59.6%; viability [16]: 38.5%; viability at 10 µM [17, 35]: 66.4%; viability at 10 µM [17, 36]: 68.4%; viability at 10 µM [18, 37]: 64.9%; viability at 10 µM [18, 38]: 42.6%; viability at 10 µM (T24): 50.6%; viability at 10 µM (NIH: OVCAR-3): 78.1%"
"COc1c(C)c2c(c(O)c1C/C=C(\C)CCC(=O)O)C(=O)OC2 [Mycophenolic (Mycophenolate), Mycophenolic]",43.2%,24.7%,56.9%,28.9%,57.4%,45.7%,31.7%,57.8%,70.3%,120%,57.5%,40.3%,58.6%,70.1%,65.6%,51.8%,66.8%,43.2%,40.3%,64.9%,"viability at 10 µM [12, 30]: 61.7%; viability at 10 µM [13]: 44.6%; viability at 10 µM [14, 31]: 39%; viability at 10 µM [14, 32]: 80.6%; viability at 10 µM (AsPC-1): 48.1%; viability at 10 µM [15, 33]: 54.5%; viability at 10 µM [15, 34]: 83.1%; viability [16]: 43.1%; viability at 10 µM [17, 35]: 55.4%; viability at 10 µM [17, 36]: 74.3%; viability at 10 µM [18, 37]: 46.1%; viability at 10 µM [18, 38]: 90.7%; viability at 10 µM (T24): 48.2%; viability at 10 µM (NIH: OVCAR-3): 59%"
CC(C)(C)CC(C)(C)c1ccc(O)c(Cc2ccc(Cl)cc2Cl)c1 [Clofoctol],74.9%,105%,102%,109%,34.5%,65.8%,83.9%,86.7%,83%,48.1%,109%,72.3%,67.1%,74.7%,83%,117%,135%,73.2%,73.1%,117%,"viability at 10 µM [12, 30]: 73.6%; viability at 10 µM [13]: 94.6%; viability at 10 µM [14, 31]: 90.6%; viability at 10 µM [14, 32]: 55.6%; viability at 10 µM (AsPC-1): 78.7%; viability at 10 µM [15, 33]: 69.6%; viability at 10 µM [15, 34]: 77%; viability [16]: 76.6%; viability at 10 µM [17, 35]: 110%; viability at 10 µM [17, 36]: 63.4%; viability at 10 µM [18, 37]: 98%; viability at 10 µM [18, 38]: 58%; viability at 10 µM (T24): 90.8%; viability at 10 µM (NIH: OVCAR-3): 97.8%"
